Measured values taken from patent US10208288B2, “Differentiation of human embryonic stem cells into pancreatic endocrine cells” (Janssen Biotech, Inc., priority 2012, dated 2019).

Test system: cells of the human embryonic stem cell line H1 differentiated to stage 6
Experiment: Immunostaining for NKX2.2 in stage 6 cultures
Assay type: cell-based
Conditions: 10 μM at stage 6, immunostaining; in control cultures NKX2.2+ cells distributed uniformly
Method: Cells of the human embryonic stem cell line H1 (hESC H1, passage 40) were seeded as single cells at 1×10^5 cells/cm^2 on MATRIGEL™ (1:30 dilution; BD Biosciences, NJ) coated dishes in mTeSR®1 media (StemCell Technologies, Vancouver, Canada) supplemented with 10 μM of Y27632. Forty-eight hours post seeding, cultures were washed in incomplete PBS (phosphate buffered saline without Mg or Ca). Cultures were differentiated into pancreatic endoderm/endocrine lineages as follows: • a) Stage 1 (Definitive Endoderm (DE)—3 days): Cells were cultured for one day in stage 1 media (see Example 1, above). Cells were then cultured for an additional day in MCDB-131 medium supplemented with 0.1% fatty acid-free BSA, 0.0012 g/ml sodium bicarbonate, 1× GlutaMax™, 4.5 mM D-Glucose, 100 ng/ml GDF8, and 0.1 μM MCX compound. […]

## CCCCCCCCCCCCC/C=C/[C@@H](O)[C@@H](N)COP(=O)(O)O [S1P, sphingosine-1-phosphate]
  NKX2.2+ cells in endocrine clusters: enriched for NKX2.2+ cells
